Measured values published in ChEMBL document CHEMBL4819133, “Exploiting the HSP60/10 chaperonin system as a chemotherapeutic target for colorectal cancer” (Bioorg Med Chem, 2021).
Active and inactive are the calls of the source. The calls are words filed in the database; no cut-off is given here.

Legend:
HT-29 [1] = experiment: Cytotoxicity against human HT-29 cells assessed as reduction in cell viability measured after 48 hrs by AlamarBlue assay; assay type: functional, cell-based; details: HT-29, 48 h
E. coli GroEL/ES [2] = molecular target: T1, E. coli GroEL/ES (Escherichia coli, UniProt P0A6F5); experiment: Inhibition of Escherichia coli GroEL/ES-mediated refolding of the denatured rhodanese; assay type: protein-complex assay
HT-29 [3] = experiment: Inhibition of clonogenicity in human HT-29 cells assessed as reduction in number of colony formation incubated for 72 hrs followed by culturing in fresh compound-free medium for 7 days by crystal violet staining based analysis; assay type: functional, cell-based
HCT-116 [4] = experiment: Inhibition of clonogenicity in human HCT-116 cells assessed as reduction in size of colony incubated for 72 hrs followed by culturing in fresh compound-free medium for 7 days by crystal violet staining based analysis; assay type: functional, cell-based
HCT-116 [5] = experiment: Inhibition of cell migration in human HCT-116 cells measured at 72 hrs by scratch wound healing assay based phase contrast microscopy; assay type: functional; details: HCT-116, 72 h
DLD-1 [6] = experiment: Inhibition of clonogenicity in human DLD-1 cells assessed as reduction in number of colony formation incubated for 72 hrs followed by culturing in fresh compound-free medium for 7 days by crystal violet staining based analysis; assay type: functional, cell-based
HCT-116 [7] = experiment: Cytotoxicity against human HCT-116 cells assessed as reduction in cell viability measured after 48 hrs by AlamarBlue assay; assay type: functional, cell-based; details: HCT-116, 48 h
HCT-116 [8] = experiment: Induction of apoptosis in human HCT-116 cells at 100 uM incubated for 48 hrs by AnnexinV-FITC/PI staining based flow cytometry; assay type: functional, cell-based
FHC = experiment: Cytotoxicity against human FHC cells assessed as reduction in cell viability measured after 48 hrs by AlamarBlue assay; assay type: cell-based
DLD-1 [9] = experiment: Inhibition of clonogenicity in human DLD-1 cells assessed as reduction in size of colony incubated for 72 hrs followed by culturing in fresh compound-free medium for 7 days by crystal violet staining based analysis; assay type: functional, cell-based
[10] = Inhibition of refolded MDH (unknown origin)-mediated oxidation of NADPH in presence of mesoxalic acid treated with compound after refolding of the denatured enzyme; design: species or system Homo sapiens
DLD-1 [11] = experiment: Inhibition of clonogenicity in human DLD-1 cells assessed as reduction in colony formation at 50 uM incubated for 72 hrs followed by culturing in fresh compound-free medium for 7 days by crystal violet staining based analysis; assay type: functional
HT-29 [12] = experiment: Inhibition of clonogenicity in human HT-29 cells assessed as reduction in size of colony incubated for 72 hrs followed by culturing in fresh compound-free medium for 7 days by crystal violet staining based analysis; assay type: functional, cell-based
HT-29 [13] = experiment: Inhibition of clonogenicity in human HT-29 cells assessed as reduction in colony formation at 50 uM incubated for 72 hrs followed by culturing in fresh compound-free medium for 7 days by crystal violet staining based analysis; assay type: functional
HSP60/HSP10 = HSP60/HSP10 (Homo sapiens, UniProt P10809); experiment: Inhibition of human mitochondrial HSP60/10-mediated refolding of the denatured malate dehydrogenase; assay type: mitochondria, Mitochondria
HCT-116 [14] = experiment: Inhibition of clonogenicity in human HCT-116 cells assessed as reduction in number of colony formation incubated for 72 hrs followed by culturing in fresh compound-free medium for 7 days by crystal violet staining based analysis; assay type: functional, cell-based
E. coli GroEL/ES [15] = molecular target: T1, E. coli GroEL/ES; experiment: Inhibition of Escherichia coli GroEL/ES-mediated refolding of the denatured malate dehydrogenase; assay type: protein-complex assay
HCT-116 [16] = experiment: Inhibition of clonogenicity in human HCT-116 cells assessed as reduction in colony formation at 50 uM incubated for 72 hrs followed by culturing in fresh compound-free medium for 7 days by crystal violet staining based analysis; assay type: functional
HCT-116 [17] = experiment: Inhibition of cell migration in human HCT-116 cells at 10 uM measured at >=20 hrs by scratch wound healing assay based phase contrast microscopy; assay type: functional; details: time hrs >=20
DLD-1 [18] = experiment: Cytotoxicity against human DLD-1 cells assessed as reduction in cell viability measured after 48 hrs by AlamarBlue assay; assay type: functional, cell-based; details: DLD-1, 48 h
[19] = Cytotoxicity against human FHs74Int cells assessed as reduction in cell viability measured after 48 hrs by AlamarBlue assay; assay type: cell-based
HCT-116 [20] = experiment: Induction of cell death in human HCT-116 cells assessed as loss of cell monolayer integrity and cytoplasm extrusion at 100 uM measured for 72 hrs by phase contrast microscopy; assay type: functional, cell-based
[21] = (§1) Cytotoxicity against human HEK293 cells assessed as reduction in cell viability measured after 48 hrs by AlamarBlue assay; assay type: cell-based; details: HEK293 cells
[22] = Cytotoxicity against human THLE-3 cells assessed as reduction in cell viability measured after 48 hrs by AlamarBlue assay; assay type: cell-based; details: for CC50 at 48 h: THLE-3 cells; for CC50: thle-3, 48 h
[23] = molecular target: T2, Thiosulfate sulfurtransferase (Homo sapiens, UniProt Q16762); experiment: Inhibition of refolded Rhodanese (unknown origin)-mediated conversion of cyanide to thiocyanate treated with compound after refolding of the denatured enzyme
T2 sequence (Q16762 whole entry): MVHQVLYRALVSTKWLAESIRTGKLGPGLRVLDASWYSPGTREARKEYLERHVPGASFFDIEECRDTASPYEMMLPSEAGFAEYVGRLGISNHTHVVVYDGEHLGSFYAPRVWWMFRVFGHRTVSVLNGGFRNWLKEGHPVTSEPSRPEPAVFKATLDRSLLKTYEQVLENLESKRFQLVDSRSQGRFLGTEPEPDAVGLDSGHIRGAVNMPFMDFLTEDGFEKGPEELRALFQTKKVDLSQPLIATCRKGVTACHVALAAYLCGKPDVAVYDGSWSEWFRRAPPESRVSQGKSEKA

HCT-116 [24] = experiment: Cytostatic activity in human HCT-116 cells assessed as viable cells at 100 uM incubated for 48 hrs by AnnexinV/PI staining based flow cytometry; assay type: functional, cell-based
HCT-116 [25] = experiment: Inhibition of cell migration in human HCT-116 cells at 0.14 to 100 uM measured for 72 hrs by scratch wound healing assay based phase contrast microscopy; assay type: functional; details: dose 0.14-100 µM
HCT-116 [26] = experiment: Induction of apoptosis in human HCT-116 cells assessed as compact cell monolayer at 100 uM measured for 72 hrs by phase contrast microscopy; assay type: functional, cell-based
HEK293 = experiment: as §1; assay type: cell-based; details: hek293, 48 h

HSP60/HSP10, sequence (P10809 whole entry): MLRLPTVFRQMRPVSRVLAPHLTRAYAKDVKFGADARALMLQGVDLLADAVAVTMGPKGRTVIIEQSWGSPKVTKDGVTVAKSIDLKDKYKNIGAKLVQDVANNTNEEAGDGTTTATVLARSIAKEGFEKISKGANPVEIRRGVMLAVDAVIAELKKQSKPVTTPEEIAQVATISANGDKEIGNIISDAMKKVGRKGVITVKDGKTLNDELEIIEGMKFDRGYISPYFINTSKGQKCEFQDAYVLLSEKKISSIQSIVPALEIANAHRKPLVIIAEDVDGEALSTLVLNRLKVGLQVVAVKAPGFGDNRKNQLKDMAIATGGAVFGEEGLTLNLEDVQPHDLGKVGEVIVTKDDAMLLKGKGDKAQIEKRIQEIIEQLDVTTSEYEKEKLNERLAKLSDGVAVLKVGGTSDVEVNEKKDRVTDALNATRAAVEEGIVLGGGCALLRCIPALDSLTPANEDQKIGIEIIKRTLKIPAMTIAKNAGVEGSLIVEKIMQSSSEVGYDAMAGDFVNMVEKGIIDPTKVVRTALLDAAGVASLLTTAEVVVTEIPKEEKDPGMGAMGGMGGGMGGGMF
HSP60/HSP10, sequence (P61604 whole entry, further chain): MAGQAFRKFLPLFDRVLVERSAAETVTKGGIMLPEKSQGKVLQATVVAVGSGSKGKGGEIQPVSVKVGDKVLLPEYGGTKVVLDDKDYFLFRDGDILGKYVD
T1 sequence (P0A6F5 whole entry, looked up): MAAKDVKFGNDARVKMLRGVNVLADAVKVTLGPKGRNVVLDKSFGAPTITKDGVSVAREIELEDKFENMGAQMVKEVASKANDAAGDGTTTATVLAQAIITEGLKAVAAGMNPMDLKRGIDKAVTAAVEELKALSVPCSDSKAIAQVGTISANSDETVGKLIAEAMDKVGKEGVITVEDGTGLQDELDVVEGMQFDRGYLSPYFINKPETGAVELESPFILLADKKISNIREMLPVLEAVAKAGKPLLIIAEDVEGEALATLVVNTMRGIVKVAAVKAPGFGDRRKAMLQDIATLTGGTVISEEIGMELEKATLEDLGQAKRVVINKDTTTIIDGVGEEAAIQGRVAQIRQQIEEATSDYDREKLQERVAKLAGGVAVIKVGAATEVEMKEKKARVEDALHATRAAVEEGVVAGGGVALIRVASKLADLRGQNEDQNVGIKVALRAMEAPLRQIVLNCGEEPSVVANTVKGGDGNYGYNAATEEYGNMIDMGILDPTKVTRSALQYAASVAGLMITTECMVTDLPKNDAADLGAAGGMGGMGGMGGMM

## O=C(Nc1ccc(Sc2nc3ccccc3s2)c(Cl)c1)c1cccc(Br)c1O
HT-29 [1]
  EC50: 20 µM
E. coli GroEL/ES [2]
  IC50: 5.9 µM
HT-29 [3]
  EC50: 32 µM
  inhibition: Dose-Dependent Effect
HCT-116 [4]
  EC50: 9.1 µM
  inhibition: Dose-Dependent Effect
HCT-116 [5]
  EC50: 2 µM
DLD-1 [6]
  EC50: 21 µM
  inhibition: Dose-Dependent Effect
HCT-116 [7]
  EC50: 12 µM
HCT-116 [8]
  Activity: Active
FHC
  CC50: > 100 µM
DLD-1 [9]
  EC50: 11 µM
  inhibition: Dose-Dependent Effect
[10]
  IC50: > 62.5 µM
DLD-1 [11]
  inhibition at 50 µM: 100%
HT-29 [12]
  EC50: 12 µM
  inhibition: Dose-Dependent Effect
HT-29 [13]
  inhibition at 50 µM: 100%
HSP60/HSP10
  IC50: 7.7 µM
HCT-116 [14]
  EC50: 17 µM
  inhibition: Dose-Dependent Effect
E. coli GroEL/ES [15]
  IC50: 10 µM
HCT-116 [16]
  inhibition at 50 µM: 100%
HCT-116 [17]
  inhibition: Active
DLD-1 [18]
  EC50: 22 µM
[19]
  CC50: > 100 µM
HCT-116 [20]
  Activity: Active
[21]
  CC50 at 48 h: 68 µM
[22]
  CC50 at 48 h: 18 µM

## Cc1ccc(S(=O)(=O)Nc2ccc(-c3nc4cc(NS(=O)(=O)c5ccc(C)cc5)ccc4o3)cc2)cc1
HT-29 [1]
  EC50: 11 µM
E. coli GroEL/ES [2]
  IC50: 30 µM
HT-29 [3]
  EC50: 13 µM
  inhibition: Dose-Dependent Effect
HCT-116 [4]
  EC50: 15 µM
  inhibition: Dose-Dependent Effect
HCT-116 [5]
  EC50: 9 µM
DLD-1 [6]
  EC50: 16 µM
  inhibition: Dose-Dependent Effect
HCT-116 [7]
  EC50: 5.9 µM
HCT-116 [8]
  Activity: Active
FHC
  CC50: 51 µM
DLD-1 [9]
  EC50: 12 µM
  inhibition: Dose-Dependent Effect
[10]
  IC50: > 62.5 µM
DLD-1 [11]
  inhibition at 50 µM: 100%
HT-29 [12]
  EC50: 10 µM
  inhibition: Dose-Dependent Effect
HT-29 [13]
  inhibition at 50 µM: 100%
[23]
  IC50: > 100 µM
HSP60/HSP10
  IC50: > 100 µM
HCT-116 [14]
  EC50: 14 µM
  inhibition: Dose-Dependent Effect
E. coli GroEL/ES [15]
  IC50: 27 µM
HCT-116 [16]
  inhibition at 50 µM: 100%
HCT-116 [17]
  inhibition: Active
DLD-1 [18]
  EC50: 13 µM
[19]
  CC50: 74 µM
HCT-116 [20]
  Activity: Active
[21]
  CC50 at 48 h: 32 µM
[22]
  CC50 at 48 h: 15 µM

## COc1ccc(S(=O)(=O)Nc2ccc3oc(-c4ccc(NC(=O)c5ccc(Cl)s5)cc4)nc3c2)cc1
HT-29 [1]
  EC50: 1.9 µM
E. coli GroEL/ES [2]
  IC50: 15 µM
HT-29 [3]
  EC50: 2.3 µM
HCT-116 [4]
  EC50: 1.1 µM
HCT-116 [5]
  EC50: 5.7 µM
DLD-1 [6]
  EC50: > 50 µM
HCT-116 [7]
  EC50: 5.4 µM
FHC
  CC50: > 100 µM
HCT-116 [24]
  Activity: Active
HCT-116 [25]
  inhibition: Active
DLD-1 [9]
  EC50: 11 µM
[10]
  IC50: > 62.5 µM
HCT-116 [26]
  Activity: inactive
DLD-1 [11]
  inhibition: Active
HT-29 [12]
  EC50: 0.71 µM
HT-29 [13]
  inhibition: Active
[23]
  IC50: > 100 µM
HSP60/HSP10
  IC50: 61 µM
HCT-116 [14]
  EC50: 2.7 µM
E. coli GroEL/ES [15]
  IC50: 18 µM
HCT-116 [16]
  inhibition: Active
DLD-1 [18]
  EC50: 4.6 µM
[19]
  CC50: > 100 µM
HEK293
  CC50: 15 µM
[22]
  CC50: 57 µM

## COc1c(Br)cccc1C(=O)Nc1ccc(Sc2nc3ccccc3s2)c(Cl)c1
HT-29 [1]
  EC50: 11 µM
E. coli GroEL/ES [2]
  IC50: 16 µM
HT-29 [3]
  EC50: 27 µM
  inhibition: Dose-Dependent Effect
HCT-116 [4]
  EC50: 12 µM
  inhibition: Dose-Dependent Effect
HCT-116 [5]
  EC50: 5.5 µM
DLD-1 [6]
  EC50: 11 µM
  inhibition: Dose-Dependent Effect
HCT-116 [7]
  EC50: 8.5 µM
HCT-116 [8]
  Activity: Active
FHC
  CC50: > 100 µM
DLD-1 [9]
  EC50: 10 µM
  inhibition: Dose-Dependent Effect
[10]
  IC50: > 62.5 µM
DLD-1 [11]
  inhibition at 50 µM: 100%
HT-29 [12]
  EC50: 13 µM
  inhibition: Dose-Dependent Effect
HT-29 [13]
  inhibition at 50 µM: 100%
HCT-116 [14]
  EC50: 11 µM
  inhibition: Dose-Dependent Effect
E. coli GroEL/ES [15]
  IC50: 37 µM
HCT-116 [16]
  inhibition at 50 µM: 100%
HCT-116 [17]
  inhibition: Active
DLD-1 [18]
  EC50: 10 µM
[19]
  CC50: > 100 µM
HCT-116 [20]
  Activity: Active
[21]
  CC50 at 48 h: 40 µM
[22]
  CC50 at 48 h: 14 µM

## COc1ccc(S(=O)(=O)Nc2ccc3oc(-c4ccc(NC(=O)c5cccc(C)c5[N+](=O)[O-])cc4)nc3c2)cc1
E. coli GroEL/ES [2]
  IC50: 28 µM
HT-29 [3]
  EC50: 26 µM
HCT-116 [4]
  EC50: 2.6 µM
HCT-116 [5]
  EC50: 2.3 µM
DLD-1 [6]
  EC50: > 50 µM
HCT-116 [7]
  EC50: 4.4 µM
FHC
  CC50: > 100 µM
HCT-116 [24]
  Activity: Active
HCT-116 [25]
  inhibition: Active
DLD-1 [9]
  EC50: 1.6 µM
[10]
  IC50: > 62.5 µM
HCT-116 [26]
  Activity: inactive
DLD-1 [11]
  inhibition: Active
HT-29 [12]
  EC50: 2 µM
HT-29 [13]
  inhibition: Active
[23]
  IC50: > 100 µM
HSP60/HSP10
  IC50: 72 µM
HCT-116 [14]
  EC50: 19 µM
E. coli GroEL/ES [15]
  IC50: 33 µM
HCT-116 [16]
  inhibition: Active
DLD-1 [18]
  EC50: 1.5 µM
[19]
  CC50: > 100 µM
HEK293
  CC50: 12 µM
[22]
  CC50: 22 µM
